Measured values as given in PMC10281575, “PfCRT mutations conferring piperaquine resistance in falciparum malaria shape the kinetics of quinoline drug binding and transport” (PLOS Pathogens, 2023).
Changes are numbered by the printed parent chain. “And” between values parts separate entries of the source, which are not always exact repeats. Equal values may be shown once.

Experiments:
[1] = target: T1, PfCRT^Dd2_G353V (Plasmodium falciparum, UniProt Q8IBZ9, A220S/G353V/I356T/K76T/M74I/N326S/N75E/Q271E/R371I); assay: Verapamil inhibition of PfCRT-mediated CQ and PPQ transport in oocytes, PfCRT^Dd2_G353V; type: cell-based; details: individual replicates (S3 Fig)
T1 construct: expressed in transfected cells; host or cells: Xenopus laevis oocytes injected with in vitro transcribed RNA (pSP64T)
T1 sequence (Q8IBZ9 1-424 M74I/N75E/K76T/A220S/Q271E/N326S/G353V/I356T/R371I): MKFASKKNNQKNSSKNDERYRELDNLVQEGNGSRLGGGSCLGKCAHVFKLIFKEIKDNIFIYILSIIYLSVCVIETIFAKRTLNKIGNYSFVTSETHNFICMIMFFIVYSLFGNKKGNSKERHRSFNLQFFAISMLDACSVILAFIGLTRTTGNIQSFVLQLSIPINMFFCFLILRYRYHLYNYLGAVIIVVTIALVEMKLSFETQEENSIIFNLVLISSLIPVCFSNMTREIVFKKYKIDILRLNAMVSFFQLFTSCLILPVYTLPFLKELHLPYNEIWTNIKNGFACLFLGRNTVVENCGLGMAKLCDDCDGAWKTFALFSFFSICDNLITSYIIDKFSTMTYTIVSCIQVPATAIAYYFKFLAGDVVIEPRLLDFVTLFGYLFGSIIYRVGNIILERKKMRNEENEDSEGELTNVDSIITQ
Method: (§1) In all cases, the PfCRT-mediated CQ and PPQ transport was inhibited in the presence of 100 μM verapamil (S3 Fig).
(§2) Drug transport assays were performed as previously described. Briefly, measurements of radiolabeled drug uptake were made over 1 h, unless otherwise specified. […] Where specified, one or more unlabeled drugs were also present at the indicated concentrations. The direction of drug transport in the assays is from the extracellular medium (pH 6) into the oocyte cytosol (pH 7.2), which corresponds to the efflux of CQ or PPQ from the acidic digestive vacuole (pH 5.2) into the parasite cytosol (pH 7.2). The uptake assays were terminated by removing the oocytes from the reaction medium and washing them three times with 2 mL of ice-cold ND96 buffer. Each oocyte was transferred to a separate scintillation vial and lysed by the addition of 200 μL of a 5% SDS solution. The radioactivity in the sample was measured using a liquid scintillation analyser Tri-Carb 4910 TR (PerkinElmer). Water-injected oocytes were analyzed in parallel as a negative control. The buffer from each condition was measured in duplicate in parallel to each experiment to transform counts per minute into pmol of drug. Drug uptake attributable to PfCRT was determined by subtracting the background uptake from water-injected oocytes from that of PfCRT-expressing oocytes. In all cases, at least three independent experiments were performed on oocytes from different frogs, and for each condition in an experiment, measurements were made from 10 oocytes per treatment.
(§3) Supplementary file ppat.1011436.s006.tif: S3 Fig Verapamil inhibits PfCRT-mediated transport of CQ and PPQ. […] Left panels, data is shown as individual biological replicates (coloured symbols) overlaid onto bars representing the Mean ± S.E.M. (error bars). A one-tailed Student’s t-test was performed between untreated (no VP) and treated (+ 100 μM VP) samples, and the obtained p values are shown. Right panels, the uptake in VP-treated samples was divided by the uptake in their corresponding untreated pairs and subtracted from 100% to get the percentage of uptake inhibition mediated by the presence of 100 μM verapamil in the extracellular medium. Error bars are S.E. (TIF) Click here for additional data file.

[2] = target: T2, PfCRT^Dd2 (Plasmodium falciparum, UniProt Q8IBZ9, A220S/I356T/K76T/M74I/N326S/N75E/Q271E/R371I); assay: Verapamil inhibition of PfCRT-mediated CQ and PPQ transport in oocytes, PfCRT^Dd2; type: cell-based; design: expressed in transfected cells; host or cells: Xenopus laevis oocytes injected with in vitro transcribed RNA (pSP64T); details: individual replicates (S3 Fig)
T2 sequence (Q8IBZ9 1-424 M74I/N75E/K76T/A220S/Q271E/N326S/I356T/R371I): T1 sequence (Q8IBZ9 1-424 M74I/N75E/K76T/A220S/Q271E/N326S/G353V/I356T/R371I) with V353G
Method: as §1, §2, §3

| SMILES | PfCRTDd2_G353V-mediated CQ transport ([1]; 50 µM CQ + 100 µM VP) | PfCRTDd2_G353V-mediated CQ transport ([1]; 50 µM CQ) | PfCRTDd2-mediated CQ transport ([2]; 50 µM CQ + 100 µM VP) | PfCRTDd2-mediated CQ transport ([2]; 50 µM CQ) | PfCRTDd2_G353V-mediated PPQ transport ([1]; 50 µM PPQ + 100 µM VP) | PfCRTDd2_G353V-mediated PPQ transport ([1]; 50 µM PPQ) | PfCRTDd2-mediated PPQ transport ([2]; 50 µM PPQ + 100 µM VP) | PfCRTDd2-mediated PPQ transport ([2]; 50 µM PPQ) |
| --- | --- | --- | --- | --- | --- | --- | --- | --- |
| CCN(CC)CCCC(C)Nc1ccnc2cc(Cl)ccc12 (centres unmarked) [CQ, chloroquine] | 3.530 pmol oocyte-1 h-1 and 3.520 pmol oocyte-1 h-1 and 2.870 pmol oocyte-1 h-1 and 2.520 pmol oocyte-1 h-1 and 3.380 pmol oocyte-1 h-1 | 4.740 pmol oocyte-1 h-1 and 5.010 pmol oocyte-1 h-1 and 2.880 pmol oocyte-1 h-1 and 3.920 pmol oocyte-1 h-1 and 4.760 pmol oocyte-1 h-1 | 1.980 pmol oocyte-1 h-1 and 2.230 pmol oocyte-1 h-1 and 2.450 pmol oocyte-1 h-1 and 1.670 pmol oocyte-1 h-1 and 3.620 pmol oocyte-1 h-1 | 3.900 pmol oocyte-1 h-1 and 4.910 pmol oocyte-1 h-1 and 4.760 pmol oocyte-1 h-1 and 7.490 pmol oocyte-1 h-1 and 5.040 pmol oocyte-1 h-1 and 3.980 pmol oocyte-1 h-1 and 10.460 pmol oocyte-1 h-1 | – | – | – | – |
| Clc1ccc2c(N3CCN(CCCN4CCN(c5ccnc6cc(Cl)ccc56)CC4)CC3)ccnc2c1 [PPQ, piperaquine] | – | – | – | – | 18.21 pmol oocyte-1 h-1 and 25.90 pmol oocyte-1 h-1 and 37.78 pmol oocyte-1 h-1 and 29.33 pmol oocyte-1 h-1 and 30.34 pmol oocyte-1 h-1 | 29.38 pmol oocyte-1 h-1 and 45.38 pmol oocyte-1 h-1 and 21.36 pmol oocyte-1 h-1 and 40.00 pmol oocyte-1 h-1 and 56.34 pmol oocyte-1 h-1 and 56.46 pmol oocyte-1 h-1 and 95.52 pmol oocyte-1 h-1 and 62.83 pmol oocyte-1 h-1 | 5.44 pmol oocyte-1 h-1 and 8.16 pmol oocyte-1 h-1 and 20.06 pmol oocyte-1 h-1 and 36.26 pmol oocyte-1 h-1 and 13.97 pmol oocyte-1 h-1 | 28.14 pmol oocyte-1 h-1 and 21.87 pmol oocyte-1 h-1 and 89.78 pmol oocyte-1 h-1 and 46.28 pmol oocyte-1 h-1 and 30.01 pmol oocyte-1 h-1 and 33.33 pmol oocyte-1 h-1 |
